Measured values reported in patent publication US20230265151A1, “GIP/GLP1 CO-AGONIST COMPOUNDS” (priority 2020, published 2023).
Where two headings read alike, the source gives them in different places.

Key:
Format in all cases: cell-based
hGIPR = molecular target: T1, hGIPR (Homo sapiens, UniProt P48546); assay: Functional cAMP formation (HTRF) in HEK-293 clonal cells expressing hGIPR, 0.1% bovine casein, without or with 1.0% human serum albumin; conditions: for EC50: geometric mean
T1 construct: expressed in transfected cells
T1 sequence (P48546 22-466): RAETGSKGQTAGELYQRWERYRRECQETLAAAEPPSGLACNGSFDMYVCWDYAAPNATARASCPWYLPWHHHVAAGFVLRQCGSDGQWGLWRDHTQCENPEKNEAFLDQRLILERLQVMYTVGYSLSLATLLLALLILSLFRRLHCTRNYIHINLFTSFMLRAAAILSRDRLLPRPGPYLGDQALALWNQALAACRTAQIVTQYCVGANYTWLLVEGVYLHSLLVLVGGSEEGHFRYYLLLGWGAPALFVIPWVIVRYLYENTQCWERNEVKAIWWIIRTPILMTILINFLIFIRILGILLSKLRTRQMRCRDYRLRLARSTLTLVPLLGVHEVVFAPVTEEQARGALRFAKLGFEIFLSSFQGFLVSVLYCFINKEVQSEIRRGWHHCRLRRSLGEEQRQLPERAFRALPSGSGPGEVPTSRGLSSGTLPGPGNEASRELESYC
Method in brief: (§1)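 Cells were stimulated with peptide for 30 min at 37° C, then intracellular cAMP was measured by competitive HTRF (665/620 nm ratio) and converted to nM using a cAMP standard curve. Relative EC50 and Emax came from four-parameter logistic fits of percent maximal response against peptide concentration.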

hGCGR = molecular target: T2, hGCGR (Homo sapiens, UniProt P47871); assay: Functional cAMP formation (HTRF) in HEK-293 clonal cells expressing hGCGR, 0.1% bovine casein, without or with 1.0% human serum albumin
T2 construct: expressed in transfected cells
T2 sequence (P47871 26-477): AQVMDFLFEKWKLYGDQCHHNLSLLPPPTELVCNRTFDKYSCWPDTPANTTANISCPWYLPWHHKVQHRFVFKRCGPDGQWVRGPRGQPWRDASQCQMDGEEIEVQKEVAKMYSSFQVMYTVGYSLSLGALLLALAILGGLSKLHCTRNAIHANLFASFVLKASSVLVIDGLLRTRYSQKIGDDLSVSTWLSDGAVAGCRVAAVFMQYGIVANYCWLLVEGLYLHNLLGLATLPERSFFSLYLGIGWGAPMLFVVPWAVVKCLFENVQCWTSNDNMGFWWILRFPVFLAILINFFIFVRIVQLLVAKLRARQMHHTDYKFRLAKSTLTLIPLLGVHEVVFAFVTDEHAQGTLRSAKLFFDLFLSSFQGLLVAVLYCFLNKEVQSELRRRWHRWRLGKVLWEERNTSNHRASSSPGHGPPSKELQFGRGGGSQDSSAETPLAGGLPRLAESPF
Method in brief: as §1

hGLP-1R = hGLP-1R (Homo sapiens, UniProt P43220); assay: Functional cAMP formation (HTRF) in HEK-293 clonal cells expressing hGLP-1R, 0.1% bovine casein, without or with 1.0% human serum albumin; parameters: expressed in transfected cells
hGLP-1R, sequence (P43220 24-463): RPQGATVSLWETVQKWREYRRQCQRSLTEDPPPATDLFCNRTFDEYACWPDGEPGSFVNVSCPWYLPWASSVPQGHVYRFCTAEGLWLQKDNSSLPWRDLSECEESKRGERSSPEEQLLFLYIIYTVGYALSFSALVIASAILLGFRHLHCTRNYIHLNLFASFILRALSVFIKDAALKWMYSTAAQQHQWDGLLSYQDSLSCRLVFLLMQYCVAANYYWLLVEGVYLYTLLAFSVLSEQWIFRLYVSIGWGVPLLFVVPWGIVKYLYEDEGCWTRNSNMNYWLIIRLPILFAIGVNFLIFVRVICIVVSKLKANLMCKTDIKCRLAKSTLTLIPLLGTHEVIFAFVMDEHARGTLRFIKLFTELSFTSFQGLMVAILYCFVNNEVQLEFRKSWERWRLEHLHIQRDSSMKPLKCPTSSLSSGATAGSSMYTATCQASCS
Method in brief: as §1

[1] = 0.1% bovine casein and 1.0% human serum albumin, 37° C., read-out: hGIPR EC50, nM (SEM, n)
[2] = HEK293, 0.1% bovine casein and 1.0% human serum albumin, 37° C., percent of maximal response to GIP(1-42)NH2, read-out: hGIPR Emax, % ± SEM
[3] = cAMP, incubated at 37° C., 0.1% bovine casein (no human serum albumin), read-out: hGIPR EC50, nM (SEM, n)
[4] = 0.1% bovine casein and 1.0% human serum albumin, 37° C., geometric mean, read-out: hGCGR EC50, nM (SEM, n)
[5] = cAMP, incubated at 37° C., 0.1% bovine casein (no human serum albumin), geometric mean, read-out: hGCGR EC50, nM (SEM, n)
[6] = 0.1% bovine casein and 1.0% human serum albumin, 37° C., geometric mean, read-out: hGLP-1R EC50, nM (SEM, n)
[7] = cAMP, incubated at 37° C., 0.1% bovine casein (no human serum albumin), geometric mean, read-out: hGLP-1R EC50, nM (SEM, n)

SMILES	EC50 (hGIPR; [1]) [nM]	Emax (hGIPR; [2]) [%]	EC50 (hGIPR; [3]) [nM]	EC50 (hGCGR; [4]) [nM]	EC50 (hGCGR; [5]) [nM]	EC50 (hGLP-1R; [6]) [nM]	EC50 (hGLP-1R; [7]) [nM]	further results
CC[C@H](C)[C@H](NC(=O)[C@H](CCCN)NC(=O)[C@H](CC(=O)O)NC(=O)[C@H](CC(C)C)NC(=O)[C@](C)(CC(C)C)NC(=O)[C@@H](NC(=O)[C@H](CO)NC(=O)[C@H](CCCCNC(=O)COCCOCCNC(=O)COCCOCCNC(=O)CC[C@H](NC(=O)CCCCCCCCCCCCC(=O)O)C(=O)O)NC(=O)[C@H](CC(=O)O)NC(=O)[C@H](CO)NC(=O)[C@@H](NC(=O)[C@](C)(Cc1ccccc1F)NC(=O)[C@@H](NC(=O)CNC(=O)[C@H](CCC(=O)O)NC(=O)C(C)(C)NC(=O)[C@@H](N)Cc1ccc(O)cc1)[C@@H](C)O)[C@@H](C)O)[C@@H](C)CC)C(=O)N[C@@H](C)C(=O)N[C@@H](CCC(N)=O)C(=O)NC(C)(C)C(=O)N[C@@H](CCC(=O)O)C(=O)N[C@@](C)(Cc1ccccc1)C(=O)N[C@H](C(=O)N[C@@H](CCCCNC(=O)COCCOCCNC(=O)COCCOCCNC(=O)CC[C@H](NC(=O)CCCCCCCCCCCCC(=O)O)C(=O)O)C(=O)N[C@@](C)(Cc1ccc(O)cc1)C(=O)N[C@@H](CC(C)C)C(=O)N[C@H](C(=O)N[C@@H](CCC(=O)O)C(=O)NCC(=O)NCC(=O)N1CCC[C@H]1C(=O)N[C@@H](CO)C(=O)N[C@@H](CO)C(=O)NCC(=O)N[C@@H](C)C(=O)N1CCC[C@H]1C(=O)N1CCC[C@H]1C(=O)N1CCC[C@H]1C(=O)N[C@@H](CO)C(N)=O)[C@@H](C)CC)[C@@H](C)CC [Example 110]								EC50 (hGIPR; hGIPR EC50, nM (SEM, n), cAMP, incubated at 37° C., 0.1% bovine casein (no human serum albumin)): 0.0417 nM; EC50 (hGCGR; hGCGR EC50, nM (SEM, n), cAMP, incubated at 37° C., 0.1% bovine casein (no human serum albumin), geometric mean): > 9950 nM; Emax (hGLP-1R; HEK293, read-out: hGLP-1R Emax, % ± SEM, percent of maximal response to GLP-1(7-36)NH2, 37° C., 0.1% bovine casein, arithmetic mean): 98.8%; EC50 (hGLP-1R; hGLP-1R EC50, nM (SEM, n), cAMP, incubated at 37° C., 0.1% bovine casein (no human serum albumin), geometric mean): 1.43 nM
CC[C@H](C)[C@H](NC(=O)[C@H](CC(C)C)NC(=O)[C@](C)(Cc1ccc(O)cc1)NC(=O)[C@@H](CCC(=O)O)NC(=O)[C@@H](NC(=O)[C@H](Cc1ccccc1)NC(=O)[C@H](CCC(=O)O)NC(=O)C(C)(C)NC(=O)[C@H](CCC(N)=O)NC(=O)[C@H](C)NC(=O)[C@H](CCCCNC(=O)COCCOCCNC(=O)COCCOCCNC(=O)CC[C@H](NC(=O)CCCc1ccc(C(C)(C)C)cc1)C(=O)O)NC(=O)[C@H](CCCN)NC(=O)[C@H](CC(=O)O)NC(=O)[C@H](CC(C)C)NC(=O)[C@](C)(CC(C)C)NC(=O)[C@@H](NC(=O)[C@H](CO)NC(=O)[C@H](Cc1ccncc1)NC(=O)[C@H](CC(=O)O)NC(=O)[C@H](CO)NC(=O)[C@@H](NC(=O)[C@](C)(Cc1ccccc1F)NC(=O)[C@@H](NC(=O)CNC(=O)[C@H](CCC(=O)O)NC(=O)C(C)(C)NC(=O)[C@@H](N)Cc1ccc(O)cc1)[C@@H](C)O)[C@@H](C)O)[C@@H](C)CC)[C@@H](C)CC)C(=O)N[C@@H](CCC(=O)O)C(=O)NCC(=O)NCC(=O)N1CCC[C@H]1C(=O)N[C@@H](CO)C(=O)N[C@@H](CO)C(=O)NCC(=O)N[C@@H](C)C(=O)N1CCC[C@H]1C(=O)N1CCC[C@H]1C(=O)N1CCC[C@H]1C(=O)N[C@@H](CO)C(=O)N[C@@H](CCCCNC(=O)COCCOCCNC(=O)COCCOCCNC(=O)CC[C@H](NC(=O)CCCc1ccc(C(C)(C)C)cc1)C(=O)O)C(N)=O [Example 135]	0.0609	91.2 ± 4.78	0.0184	> 9950	> 9950	0.936	0.271	Emax (hGIPR; HEK293, percent of maximal response to GIP(1-42)NH2, 37° C., 0.1% bovine casein, arithmetic mean, read-out: hGIPR Emax, % ± SEM): 92.3 ± 2.64%
CC[C@H](C)[C@H](NC(=O)[C@H](CC(C)C)NC(=O)[C@](C)(Cc1ccc(O)cc1)NC(=O)[C@@H](CCC(=O)O)NC(=O)[C@@H](NC(=O)[C@H](Cc1ccccc1)NC(=O)[C@H](CCC(=O)O)NC(=O)C(C)(C)NC(=O)[C@H](CCC(N)=O)NC(=O)[C@H](C)NC(=O)[C@H](CCCCNC(=O)COCCOCCNC(=O)COCCOCCNC(=O)CC[C@H](NC(=O)CCCCCCCCCCCCC(=O)O)C(=O)O)NC(=O)[C@H](CCCN)NC(=O)[C@H](CC(=O)O)NC(=O)[C@H](CC(C)C)NC(=O)[C@](C)(CC(C)C)NC(=O)[C@@H](NC(=O)[C@H](CO)NC(=O)[C@H](Cc1ccncc1)NC(=O)[C@H](CC(=O)O)NC(=O)[C@H](CO)NC(=O)[C@@H](NC(=O)[C@](C)(Cc1ccccc1F)NC(=O)[C@@H](NC(=O)CNC(=O)[C@H](CCC(=O)O)NC(=O)C(C)(C)NC(=O)[C@@H](N)Cc1ccc(O)cc1)[C@@H](C)O)[C@@H](C)O)[C@@H](C)CC)[C@@H](C)CC)C(=O)N[C@@H](CCCN)C(=O)NCC(=O)NCC(=O)N[C@@H](CCCCNC(=O)COCCOCCNC(=O)COCCOCCNC(=O)CC[C@H](NC(=O)CCCCCCCCCCCCC(=O)O)C(=O)O)C(=O)N[C@@H](CO)C(=O)N[C@@H](CO)C(=O)NCC(=O)N[C@@H](C)C(=O)N1CCC[C@H]1C(=O)N1CCC[C@H]1C(=O)N1CCC[C@H]1C(=O)N[C@@H](CO)C(N)=O [Example 151]	0.306	87.5 ± 3.78	0.0197	> 9950	> 9950	17.3	0.546	Emax (hGLP-1R; HEK293, 0.1% bovine casein and 1.0% human serum albumin, 37° C., percent of maximal response to GLP-1(7-36)NH2, read-out: hGLP-1R Emax, % ± SEM): 112 ± 8.42%
CC[C@H](C)[C@H](NC(=O)[C@H](CC(C)C)NC(=O)[C@](C)(Cc1ccc(O)cc1)NC(=O)[C@@H](CCC(=O)O)NC(=O)[C@@H](NC(=O)[C@H](Cc1ccccc1)NC(=O)[C@H](CCCCNC(=O)COCCOCCNC(=O)COCCOCCNC(=O)CCCCCCCCCOc1ccc(C(=O)O)cc1)NC(=O)C(C)(C)NC(=O)[C@H](CCC(N)=O)NC(=O)[C@H](C)NC(=O)[C@H](CCCCNC(=O)COCCOCCNC(=O)COCCOCCNC(=O)CCCCCCCCCOc1ccc(C(=O)O)cc1)NC(=O)[C@H](CCCN)NC(=O)[C@H](CC(=O)O)NC(=O)[C@H](CC(C)C)NC(=O)[C@](C)(CC(C)C)NC(=O)[C@@H](NC(=O)C(C)(C)NC(=O)[C@H](Cc1ccc(O)cc1)NC(=O)[C@H](CC(=O)O)NC(=O)[C@H](CO)NC(=O)[C@@H](NC(=O)[C@](C)(Cc1ccccc1F)NC(=O)[C@@H](NC(=O)CNC(=O)[C@H](CCC(=O)O)NC(=O)C(C)(C)NC(=O)[C@@H](N)Cc1ccc(O)cc1)[C@@H](C)O)[C@@H](C)O)[C@@H](C)CC)[C@@H](C)CC)C(=O)N[C@@H](CCC(=O)O)C(=O)NCC(=O)NCC(=O)N1CCC[C@H]1C(=O)N[C@@H](CO)C(=O)N[C@@H](CO)C(=O)NCC(=O)N[C@@H](C)C(=O)N1CCC[C@H]1C(=O)N1CCC[C@H]1C(=O)N1CCC[C@H]1C(=O)N[C@@H](CO)C(N)=O [Example 393]								Emax (hGIPR; HEK293, read-out: hGIPR Emax, % ± SEM, cAMP, 37° C., 0.1% bovine casein and 1.0% human serum albumin, percent of maximal response to GIP(1-42)NH2): 66.7%; Emax (hGIPR; HEK293, read-out: hGIPR Emax, % ± SEM, cAMP, 37° C., 0.1% bovine casein, percent of maximal response to GIP(1-42)NH2, arithmetic mean): 94.3%; EC50 (hGIPR; hGIPR EC50, nM (SEM, n), cAMP, 37° C., 0.1% bovine casein (no human serum albumin)): 0.0115 nM; EC50 (hGCGR; hGCGR EC50, nM (SEM, n), cAMP, 37° C., 0.1% bovine casein (no human serum albumin), geometric mean): > 9950 nM; EC50 (hGCGR; hGCGR EC50, nM (SEM, n), cAMP, 37° C., 0.1% bovine casein and 1.0% human serum albumin, geometric mean (SEM, n)): > 9950 nM; Emax (hGLP-1R; HEK293, read-out: hGLP-1R Emax, % ± SEM, cAMP, 37° C., 0.1% bovine casein, percent of maximal response to GLP-1(7-36)NH2, arithmetic mean): 96.8%; EC50 (hGLP-1R; hGLP-1R EC50, nM (SEM, n), cAMP, 37° C., 0.1% bovine casein (no human serum albumin), geometric mean): 0.372 nM; EC50 (hGLP-1R; hGLP-1R EC50, nM (SEM, n), cAMP, 37° C., 0.1% bovine casein and 1.0% human serum albumin, geometric mean (SEM, n)): 9.18 nM
